The source of these data is patent publication US9814709B2, “Bruton's tyrosine kinase inhibitor” (HEFEI INSTITUTES OF PHYSICAL SCIENCE, CHINESE ACADEMY OF …, priority 2014, dated 2017).

Like-named read-outs stand apart in the source and are kept apart here.

Holding throughout (format): cell-based
The target in one assay is BTK (Homo sapiens, UniProt Q06187). Put plainly: Phosphorylation of BTK in IL2-stimulated PBMC, Western Blot. Details: endogenous in cells; host or cells: human peripheral blood mononuclear cells (PBMC). Particulars: 3.5 hours, then 20 ng/mL IL2 30 min. As to the method: In order to test the effect of Compound 1 on human cells, a peripheral blood mononuclear cell (PBMC) culture system with BTK signal being activated by in vitro stimulation was introduced. The phenomena occurred in the clinical patients were simulated by stimulating PBMC of a normal human with IL2 to activate the BTK signal. PBMC cells were seeded in 6-well plate and Compound 1 of different concentrations (0, 0.01, 0.1, 1 μM), 1 μM of PCI-32765 and 1 μM of Compound 19 were added; 3.5 hours later after the administration, the samples were stimulated with 20 ng/ML IL2 for 30 min and then were collected. Western Blot assay was performed. […] The negative control Compound 19 had no effect on the phosphorylation of BTK.
Sequence of BTK (Q06187 whole entry): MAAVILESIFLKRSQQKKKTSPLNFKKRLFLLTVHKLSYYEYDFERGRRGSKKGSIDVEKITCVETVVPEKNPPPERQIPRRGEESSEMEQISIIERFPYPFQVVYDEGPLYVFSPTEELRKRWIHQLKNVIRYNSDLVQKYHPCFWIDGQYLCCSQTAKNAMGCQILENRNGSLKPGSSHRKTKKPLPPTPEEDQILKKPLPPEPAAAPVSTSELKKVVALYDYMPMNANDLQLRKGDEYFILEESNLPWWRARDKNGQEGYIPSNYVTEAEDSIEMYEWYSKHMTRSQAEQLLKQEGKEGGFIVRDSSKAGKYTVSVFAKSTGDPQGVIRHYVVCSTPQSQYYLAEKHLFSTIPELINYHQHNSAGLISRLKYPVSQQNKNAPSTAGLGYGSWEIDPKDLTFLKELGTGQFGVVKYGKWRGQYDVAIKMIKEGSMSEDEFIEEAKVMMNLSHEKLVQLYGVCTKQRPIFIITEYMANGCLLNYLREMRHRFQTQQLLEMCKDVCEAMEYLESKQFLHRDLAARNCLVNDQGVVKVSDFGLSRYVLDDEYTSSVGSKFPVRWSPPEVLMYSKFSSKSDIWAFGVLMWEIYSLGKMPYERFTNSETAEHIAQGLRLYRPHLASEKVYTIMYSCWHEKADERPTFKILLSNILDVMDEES
Background: A western blot detects proteins with antibodies after separation by electrophoresis.

Assay [1] has as its system mouse TEL-JAK3-BaF3 cells (stably expressing TEL-JAK3 activated kinase). Put plainly: Cell growth, Cell Titer-Glo. Particulars: TEL-JAK3-BaF3, 72 hrs, read-out: Half inhibitory concentration IC50. An excerpt: (§1) We further assessed the selectivity of Compound 1 to inhibit the proliferation of cancer cells, by testing the effect of Btk inhibitor on the growth of cancer cells. In the example, we used B-lymphoma cell Ramos, cervical cancer cells HeLa, prostate cancer cells DU145, RV-1 and C4-2, colon cancer cells HCT116, blood cancer cells K562, B-cell lymphoma cells U2932, diffuse large B-cell lymphoma cells OCI-LY10, diffuse histiocytic lymphoma cells SU-DHL-2, diffuse large B-cell lymphoma cells TMD8, human non-small cell lung cancer cells H1975 (expressing EGFR L858R/T790M double mutant gene), human lung adenocarcinoma cells A549 (expressing wild-type EGFR gene), human non-small cell lung cancer cells H460 (expressing wild-type EGFR gene), mantel cell lymphoma (MCL) cells Z-138, EB virus infected human peripheral lymphocyte cells JVM-2, MCL cells REC-1, leukemia cells AML-3, acute promyelocytic leukemia cell line NB-4(Lu+), MDS-RAEB (myelodysplastic syndrome-excessive blasts) cell line SKM-1 human leukemia cell Nomo-1, human B-cell leukemia cell line NALM6, human leukocyte leukemia cells HEL, human T-cell lymphoma cells PF-382, acute myelocytic leukemia (AML) cell line MOLM14, AML cell line MOLM13, human Burkitt's lymphoma cells Namalwa, mouse pro-B cells BaF3, all of where were purchased from ATCC. Also used were mouse TEL-EGFR-BaF3 (stably expressing TEL-EGFR activated kinase), mouse TEL-EGFR/T790-BaF3 cells (stably expressing TEL-EGFR-T790M activated mutant kinase), mouse TEL-EGFR/L858R-BaF3 cells (stably expressing TEL-EGFR-L858R activated mutant kinase), mouse TEL-EGFR/T790/L858R-BaF3 (stably expressing TEL-EGFR-T790M/L858R activated mutant kinase), mouse TEL-BMX-BaF3 cells (stably expressing TEL-BMX activated kinase), mouse TEL-JAK1-BaF3 cells (stably expressing TEL-JAK1 activated kinase), mouse TEL-JAK2-BaF3 cells (stably expressing TEL-JAK2 activated kinase), mouse TEL-JAK3-BaF3 cells (stably expressing TEL-JAK3 activated kinase), where were all established by our laboratory via the following method: the kinase domain sequences of human EGFR, BMX, JAK1, JAK2, JAK3 were amplified respectively by PCR, and these kinase were inserted into the MSCV-Puro vectors with N-terminal TEL segment (Clontech); if there was a mutation, the mutation of the corresponding site was conducted by Site-Directed Mutagenesis kit (Stratagene); the resultants were stably transfected into mouse BaF3 cells by the means of retrovirus, and the IL-3 growth factors were removed, and eventually the EGFR, BMX, JAK1, JAK2, JAK3-transferred protein dependent cell lines were obtained.
(§2) In the example, different concentrations (0.000508 μM, 0.00152 μM, 0.00457 μM, 0.0137 μM, 0.0411 μM, 0.123 μM, 0.370 μM, 1.11 μM, 3.33 μM, 10 μM) of Compound 1 and Compound 19 were added into above cells, and were incubated for 72 hrs. The number of viable cells was determined by quantitating ATP in viable cells using Cell Titer-Glo® (Promega, U.S.) chemiluminescence cell viability assay kit.
In general terms: In ATP-based viability assays light output follows the ATP content of the culture.

The subject of assay [2] is mouse TEL-EGFR/T790-BaF3 cells (stably expressing TEL-EGFR-T790M activated mutant kinase). Nature of the assay: Cell growth, Cell Titer-Glo. As to conditions: TEL-EGFR/T790-BaF3, 72 hrs, read-out: Half inhibitory concentration IC50.
Text: as §1, §2

Assay [3] concerns mouse TEL-EGFR-BaF3 (stably expressing TEL-EGFR activated kinase). Nature of the assay: Cell growth, Cell Titer-Glo. Particulars: TEL-EGFR-BaF3, 72 hrs, read-out: Half inhibitory concentration IC50.
Text: as §1, §2

Assay [4] concerns mouse TEL-BMX-BaF3 cells (stably expressing TEL-BMX activated kinase). Nature of the assay: Cell growth, Cell Titer-Glo. Particulars: TEL-BMX-BaF3, 72 hrs, read-out: Half inhibitory concentration IC50.
Text: as §1, §2

For assay [5], the system named is mouse TEL-EGFR/T790/L858R-BaF3 (stably expressing TEL-EGFR-T790M/L858R activated mutant kinase). Nature of the assay: Cell growth, Cell Titer-Glo. As to conditions: TEL-EGFR/T790/L858R-BaF3, 72 hrs, read-out: Half inhibitory concentration IC50.
Text: as §1, §2

In assay [6] the test system is mouse TEL-EGFR/L858R-BaF3 cells (stably expressing TEL-EGFR-L858R activated mutant kinase). Put plainly: Cell growth, Cell Titer-Glo. As to conditions: TEL-EGFR/L858R-BaF3, 72 hrs, read-out: Half inhibitory concentration IC50.
Text: as §1, §2

A further assay has as its system mouse pro-B cells BaF3. Nature of the assay: Cell growth, Cell Titer-Glo. As to conditions: BaF3, 72 hrs (listed twice in Table 3), read-out: Half inhibitory concentration IC50.
Text: as §1, §2

The subject of assay [7] is mouse TEL-JAK2-BaF3 cells (stably expressing TEL-JAK2 activated kinase). Put plainly: Cell growth, Cell Titer-Glo. As to conditions: TEL-JAK2-BaF3, 72 hrs, read-out: Half inhibitory concentration IC50.
Text: as §1, §2

Regarding `C=CC(=O)Nc1cc(-n2c(=O)ccc3cnc4ccc(-n5cccn5)cc4c32)ccc1C` [Compound 1, N-(2-methyl-5-(2-oxo-9-(1H-pyrazol-1-yl)benzo[H][1,6]naphthyridin-1(2H)-yl)phenyl)acrylamide], the “effect on phosphorylation of BTK in PBMCs” value on BTK (1 μM) was “comparative to that of the positive control”; on BTK (0.01, 0.1, 1 μM, some dose-dependency), “significantly inhibited”. The IC50 came to 2300 nM in assay [1]; 918 nM in assay [2]; 2660 nM in assay [3]; 18 nM in assay [4]; 1590 nM in [5]; 292 nM in assay [6]. Further, the IC50 came to 4280 nM with mouse pro-B cells BaF3; 4200 nM with mouse pro-B cells BaF3 (Mus musculus, BaF3, 72 h); 2100 nM in assay [7].

As for `CCC(=O)Nc1cc(-n2c(=O)ccc3cnc4ccc(-n5cccn5)cc4c32)ccc1C` [Compound 19, N-(2-methyl-5-(2-oxo-9-(1H-pyrazol-1-yl)benzo[H][1,6]naphthyridin-1(2H)-yl)phenyl) propionamide], the “effect on phosphorylation of BTK in PBMCs” value at BTK (1 μM) is recorded as “no effect”. Also, the IC50 in assay [1], in [2], in [3], in [4], in [5] and in [6] was > 10000 nM in each case. Further, the IC50 is > 10000 nM in the assay with mouse pro-B cells BaF3 (Mus musculus, BaF3, 72 h) and > 10000 nM in assay [7].
